Molecules are shown by their SMILES. Converted amounts (≈) assume the structure as drawn.

Data on 106 molecules can be found in PubChem BioAssay AID1996.

The conditions of this series: buffer; pH 7.4; 200.0 µM.
For the molecule `O=C(COc1ccccc1C(=O)O)NC1CCCc2ccccc21` (stereo unspecified), the solubility (kinetic) was 0.0138 mg/mL (≈ 42.4 µM). The molecule `C(=C\c1ccccc1)/CNCC1CCCO1.Cl` (stereo unspecified) registered a kinetic solubility of 0.038 mg/mL. The result for `N/C(=N\OC(=O)c1ccc(Cl)c([N+](=O)[O-])c1)c1ccccn1` reads 0.0027 mg/mL (≈ 8.42 µM); that for `Cc1cc(=O)[nH]c(NCc2ccc(Cl)cc2)n1`, above 0.0375 mg/mL; that for `Cc1ccc(NS(=O)(=O)c2ccc(C)c(NC(=S)NCCN3CCOCC3)c2)c(C)c1`, above 0.0694 mg/mL. The figure for `O=C(/C=C/NCc1cccnc1)c1ccc(-c2ccccc2)cc1` is 0.0028 mg/mL (≈ 8.91 µM).

Turning to `Cl.OC(COCc1ccc(Cl)cc1)CN1CCCCC1` (stereo unspecified), the solubility (kinetic) came out at 0.0464 mg/mL. `CCN(CC(=O)Nc1c(F)cccc1F)C(=O)C1CC1` gave a solubility (kinetic) of 0.0407 mg/mL (≈ 144 µM). The figure for `COc1ccc(Cl)cc1N1C(=O)c2cccnc2C1=O` is above 0.0433 mg/mL; for `CC(NS(=O)(=O)c1ccccc1)C(=O)NC1CCCC1` (stereo unspecified) it is above 0.0445 mg/mL; for `CN1CCN(c2nc3ccccn3c(=O)c2C=C(C#N)C#N)CC1` it is 0.048 mg/mL (≈ 150 µM). The result for `OC1CCNC(=S)N1c1ccccc1` (stereo unspecified) reads 0.0307 mg/mL (≈ 147 µM); that for `CN(C)c1nc(N)c([N+](=O)[O-])c(NCC2CCCO2)n1` (stereo unspecified), 0.0405 mg/mL (≈ 143 µM). The figure for `Nc1ccc(C(=O)NC23CC4CC(CC(C4)C2)C3)cc1` is 0.0373 mg/mL (≈ 138 µM); for `Cc1ccnc(NC(=O)COc2ccc3c(c2)CCC3)c1` it is 0.0016 mg/mL (≈ 5.67 µM); for `Cc1ccc(-c2ccc(CO)o2)cc1N` it is above 0.0305 mg/mL.

For `Cn1cnc2cc(NCc3ccc(Cl)cc3)ccc21`, the solubility (kinetic) was above 0.0408 mg/mL. The molecule `CCS(=O)(=O)c1c(S(=O)(=O)CC)c2ccccn2c1C(N)=O` yielded a solubility (kinetic) above 0.0517 mg/mL.

In the case of `Cc1ccccc1COC(=O)c1cc([N+](=O)[O-])ccc1N1CCOCC1`, the solubility (kinetic) came to 0.0058 mg/mL (≈ 16.3 µM). The result for `O=CN1CCN(C(=O)c2cccc([N+](=O)[O-])c2)CC1` reads above 0.0395 mg/mL; that for `CC1CCCC(NC(=O)CCn2c(=S)oc3ccccc32)C1C` (stereo unspecified), 0.002 mg/mL (≈ 6.02 µM); that for `c1ccc(Nc2ccnc(Nc3ccccc3)n2)cc1`, 0.0067 mg/mL (≈ 25.5 µM). The figure for `COc1ccccc1C(=O)NCCCNC(=O)c1cccnc1` is 0.0368 mg/mL (≈ 117 µM); for `O=C(CC1NCCN(Cc2ccccc2)C1=O)Nc1ccccc1` (stereo unspecified) it is 0.0415 mg/mL (≈ 128 µM); for `O=C(NCc1cccnc1)Nc1cccc(NC(=O)NCc2cccnc2)c1F` it is 0.0076 mg/mL (≈ 19.3 µM). Take `CC(=O)Nc1ccc(CC(=O)O)cc1`: the kinetic solubility is above 0.029 mg/mL. The result for `CC(C)C(NC(=O)C1CCCCC1)C(=O)NC1CCCC(C)C1C` (stereo unspecified) reads 0.0039 mg/mL (≈ 11.6 µM); that for `CCN(CC(=O)N1CCCCCC1)S(=O)(=O)c1ccc(C)cc1`, above 0.0508 mg/mL; that for `CN(C)c1cccc(C(=O)OCC(=O)N(C)c2ccccc2)c1`, above 0.0469 mg/mL. The figure for `O=C(O)C(=O)O.c1ccc2c(OCCCN3CCCCCC3)cccc2c1` is 0.0328 mg/mL; for `Cc1ccc(C(=O)OCC(=O)NC2CC2)s1` it is above 0.0359 mg/mL. As for `COc1ccc(Cn2c(C(F)(F)F)ccc(C(N)=O)c2=O)cc1`, the kinetic solubility amounted to 0.0082 mg/mL (≈ 25.1 µM). On to `COC(=O)c1ccc(OC(=O)c2ccncc2)cc1O`, for which the kinetic solubility was above 0.041 mg/mL. The figure for `CC1(c2ccc([N+](=O)[O-])cc2)Nc2ccccc2S1` (stereo unspecified) is 0.0121 mg/mL (≈ 44.4 µM). The result for `O=C(Nc1nnc2n1CCS2)c1ccc(Br)o1` reads above 0.0473 mg/mL; that for `CCCCSCCCNC(=S)Nc1ccccc1C`, 0.0353 mg/mL (≈ 119 µM). The result for `O=C(Cc1ccccc1)Nc1ccc(NC(=O)c2cccnc2)cc1` reads 0.0032 mg/mL (≈ 9.66 µM); that for `COc1ccc(C(=O)NC2CCN(C(=O)Nc3ccc(F)cc3)CC2)cc1`, 0.0009 mg/mL (≈ 2.42 µM).

Turning to `COc1cccc(C2N(Cc3ccccc3)C(=O)C2(F)F)c1OC` (stereo unspecified), the solubility (kinetic) came out at 0.0152 mg/mL (≈ 45.6 µM). This solubility kinetic lies about 17-fold higher than the previous one. In turn, `COc1ccccc1NC(=O)CSc1nncs1` displayed a kinetic solubility above 0.0422 mg/mL. The figure for `Cc1ccsc1C1CC(=O)Nc2ccccc2S1` (stereo unspecified) is 0.0356 mg/mL (≈ 129 µM); for `CC(C(=O)Nc1ccccc1)N(C)Cc1cccs1` (stereo unspecified) it is 0.0336 mg/mL (≈ 122 µM); for `Cc1cc(=O)[nH]c(SCC(=O)N2CCN(C(=O)c3ccco3)CC2)n1` it is above 0.0544 mg/mL. For the molecule `Cc1ccc(N(CN2CCCC2=O)C(=O)c2ccccc2)cc1`, the kinetic solubility was above 0.0463 mg/mL. Turning to `CCCCCSc1ncccc1C(=O)O`, the kinetic solubility was above 0.0338 mg/mL. The figure for `CC(=O)C1=C(O)C(=O)N(Cc2ccco2)C1c1ccccc1F` (stereo unspecified) is above 0.0473 mg/mL; for `O=c1[nH]c(=S)n(-c2ccc(F)cc2)c(O)c1/C=N/N1CCOCC1` it is above 0.0526 mg/mL. The figure for `CCc1nc2ccccc2n1CC(=O)NC1CCS(=O)(=O)C1` (stereo unspecified) is above 0.0482 mg/mL; for `O=C(NC(=S)NCc1ccc(Cl)cc1Cl)c1ccco1` it is 0.0014 mg/mL (≈ 4.25 µM). The result for `Cc1c(NC(=O)C(C)Oc2cccc(F)c2)c(=O)n(-c2ccccc2)n1C` (stereo unspecified) reads above 0.0554 mg/mL; that for `O=S(=O)(Nc1cccnc1Cl)c1ccc(-c2ccccc2)cc1`, 0.0477 mg/mL (≈ 138 µM); that for `COc1ccc(CCNC(=O)c2cc3cc(F)ccc3nc2C)cc1OC`, 0.0023 mg/mL (≈ 6.24 µM). For the molecule `COc1ccc(NC(=O)CN(C)CC(=O)NCC2CCCCC2)cc1`, the kinetic solubility is above 0.0521 mg/mL. The result for `COc1ccc(CNC(=O)CCC(=O)Nc2cccnc2)cc1` reads 0.0423 mg/mL (≈ 135 µM); that for `CC1=NOC(=O)/C1=C\c1ccc2c(c1)OCO2`, 0.032 mg/mL (≈ 138 µM); that for `CCOC(=O)/C=C1\SCC(=O)N1CC(=O)Nc1cc(S(=O)(=O)N(C)C)ccc1C`, 0.0262 mg/mL (≈ 59.3 µM).

In turn, `O=C(CNC(=O)c1ccc(Cl)cc1Cl)OC1CCCCC1=O` (stereo unspecified) had a kinetic solubility of 0.0394 mg/mL (≈ 114 µM). The figure for `Nc1c(Cl)cc(Cl)cc1C(=O)OCC(=O)N1CCOCC1` is above 0.05 mg/mL. The figure for `CC1CCC(NC(=O)CSc2nncn2C)CC1` (stereo unspecified) is above 0.0403 mg/mL; for `Cc1cc(C(=O)N2CCC3(CC2)OCCO3)no1` it is above 0.0378 mg/mL; for `O=C(COc1ccc(F)cc1Br)NCCCN1CCCC1=O` it is above 0.056 mg/mL.

With `C=CCc1c(N(CC)CC)nc(C)[nH]c1=O`, the kinetic solubility is above 0.0332 mg/mL. The figure for `O=C(COC(=O)CC1CCCC1)Nc1ccc(OC(F)F)cc1` is 0.0421 mg/mL (≈ 129 µM); for `COc1ccc(-c2cc(C(=O)NCc3cccs3)no2)cc1` it is 0.0003 mg/mL (≈ 0.954 µM); for `COc1cc(OC)c(NC(=O)/C=C/C(=O)O)cc1Cl` it is above 0.0429 mg/mL. The result for `Cc1cnc(C(=O)Oc2cccc(Cl)c2Cl)cn1` reads 0.0354 mg/mL (≈ 125 µM); that for `O=C1C(Cc2ccccc2O)NC(=S)N1c1ccccc1` (stereo unspecified), 0.0446 mg/mL (≈ 149 µM). `Fc1ccccc1NC(=S)NCCc1cccc(Cl)c1` came in with a kinetic solubility of 0.0367 mg/mL (≈ 119 µM).

In the case of `Cc1ccnc(SCC(=O)N2CCCc3ccccc32)n1`, the kinetic solubility was above 0.0449 mg/mL. The figure for `O=C(COC(=O)c1cc(S(=O)(=O)Nc2ccccc2Cl)ccc1O)Nc1ccc(F)c(F)c1F` is 0.01 mg/mL (≈ 19.4 µM); for `COC(=O)c1cccc(NC(=O)Cc2ccsc2)c1` it is above 0.0413 mg/mL; for `Cc1cccc(C)c1NC(=O)CSC(=S)N1CCCC1` it is 0.0096 mg/mL (≈ 31.1 µM).

Regarding `COc1cc(C(=O)Nc2ccc(C(=O)O)cc2)ccc1OC(C)=O`, the solubility (kinetic) is above 0.0494 mg/mL. The figure for `CCOP(=O)(c1ccc(N(C)C)cc1)C(O)c1ccc(OC)cc1` (stereo unspecified) is 0.0488 mg/mL (≈ 140 µM); for `CC(C)Nc1nc(Cl)nc(NC2CCCCC2)n1` it is 0.0027 mg/mL (≈ 10 µM). The figure for `Cc1cccc(C(=O)NC(=S)NCc2ccccc2)c1` is 0.0024 mg/mL (≈ 8.44 µM); for `O.S=c1nc[nH]c2nc[nH]c12` it is above 0.0255 mg/mL. The result for `CC(C)OC(=O)c1ccc2nc3ccccc3nc2c1` reads 0.001 mg/mL (≈ 3.76 µM).

With `CN(C)/C=N/c1ncc(C(=O)OC(C)(C)C)s1`, the kinetic solubility was above 0.0383 mg/mL. The result for `COC(=O)C1C(O)=C(C=Nc2cccc3ccccc23)C(=O)CC1(C)C` (stereo unspecified) reads 0.0316 mg/mL (≈ 89.9 µM); that for `CCN(CC)c1nc2ccccc2n(Cc2cccc(OC)c2)c1=O`, 0.0003 mg/mL (≈ 0.889 µM).

In turn, `O=C(CNC(=O)c1cccs1)OCc1ccc(Cl)cc1` registered a kinetic solubility of 0.041 mg/mL (≈ 132 µM). Take `O=P(C(=NCCO)NO)(N1CCOCC1)N1CCOCC1`: the kinetic solubility is above 0.0483 mg/mL. In the case of `O=c1[nH]c2ccc(S(=O)(=O)N3CCN(c4ccc(F)cc4)CC3)cc2o1`, the kinetic solubility turned out to be 0.0057 mg/mL (≈ 15.1 µM).

In the case of `CN(c1ccc(C(=O)COC(=O)C2CC2)cc1)S(C)(=O)=O`, the solubility (kinetic) is above 0.0467 mg/mL. The figure for `CN(C)C(=O)C[n+]1ccc(C(N)=O)cc1.[Cl-]` is 0.0354 mg/mL; for `O=C(NCc1ccccc1)C(=O)Nc1nccs1` it is 0.0031 mg/mL (≈ 11.9 µM). The result for `O=C(Oc1ccc(C(=S)N2CCOCC2)cc1)c1ccc(F)cc1` reads 0.0028 mg/mL (≈ 8.11 µM); that for `Cn1c(/C=N/O)nc2ccccc21`, above 0.0263 mg/mL. Consider `Cc1ccc(SCCSc2nc(C)cc(=O)[nH]2)cc1`, for which the kinetic solubility stood at 0.0021 mg/mL (≈ 7.18 µM). With `COCC(C)NC(=O)c1cc(OC)cc(OC)c1` (stereo unspecified), the kinetic solubility was above 0.038 mg/mL.

In the case of `O=[N+]([O-])c1cccc(-c2noc(COc3ccccc3)n2)c1`, the solubility (kinetic) amounted to 0.0009 mg/mL (≈ 3.03 µM). The figure for `NS(=O)(=O)c1ccc(CCNC(=O)c2ccc(Cl)s2)cc1` is 0.0106 mg/mL (≈ 30.7 µM); for `COc1cccc(C(=O)NCCS(=O)(=O)N2CCCC2)c1` it is above 0.0469 mg/mL.

In turn, `CC(C)c1cc(NCc2ccccn2)n2c(nc3ccccc32)c1C#N` displayed a solubility (kinetic) below 0.0001 mg/mL. In turn, `Cn1c(NC(=O)c2ccccc2)nc2ccccc21` had a solubility (kinetic) of 0.013 mg/mL (≈ 51.7 µM). For the molecule `COc1cccc(Nc2nc(-c3sc(C)nc3C)cs2)c1`, the kinetic solubility amounted to 0.0003 mg/mL (≈ 0.945 µM). The figure for `Cc1ccc(S(=O)(=O)NC(=O)c2cccc(C)c2)cc1` is above 0.0434 mg/mL; for `COC(=O)c1sc2nc3c(cc2c1N)CCCC3` it is 0.002 mg/mL (≈ 7.62 µM). The result for `COc1ccccc1C(C)NC(=O)c1ccc(S(=O)(=O)NCc2ccco2)cc1` (stereo unspecified) reads 0.0126 mg/mL (≈ 30.4 µM). The result for `O=[N+]([O-])c1ccc(N2CCN(c3ccccc3Cl)CC2)cn1` reads 0.002 mg/mL (≈ 6.27 µM). Turning to `Cc1c(C(=O)Nc2ccccn2)sc2nc3n(c(=O)c12)CCC3`, the kinetic solubility worked out at 0.0329 mg/mL (≈ 101 µM). The figure for `COc1ccccc1/C=C/c1nc2ccc(OC(C)=O)cc2c(=O)o1` is below 0.0007 mg/mL. In turn, `COc1ccc2c(c1)CC(=O)NC=C2` displayed a kinetic solubility above 0.0284 mg/mL. Molecule `CN(Cc1ccco1)C(=O)CN1C(=O)NC2(CCCC2)C1=O` showed a kinetic solubility of 0.043 mg/mL (≈ 141 µM).

`Cc1ccccc1CNC(=O)c1ccc2ccccc2n1` showed a kinetic solubility of 0.0092 mg/mL (≈ 33.3 µM).
